# Results taken from patent publication US11485758B2, “Bi-terminal pegylated integrin-binding peptides and methods of use thereof” (The Regents of the University of California, priority 2014, dated 2022).
# Like-named read-outs stand apart in the source and are kept apart here. Where a SMILES comes first, the peptide text is derived from it. Where no end group is shown, it is not given here. The star is where a group is joined. Benzoyl(4-F) = O=C(c1ccc(F)cc1)*
# How the values were obtained:
# [1] = tested on: integrin αvβ6-expressing DX3puroβ6 cell line; assay: Cell binding and internalization of radiotracers, DX3puroβ6 cells; type: cell-based, human; conditions: for Affinity and selectivity for the αvβ6(+)-expressing cell line DX3puroβ6, in words: cell binding vs DX3puro control
# αvβ6 integrin = molecular target: T1, αvβ6 integrin (Homo sapiens, UniProt P06756+P18564); assay: Competitive binding ELISA of [19F]FBA peptides for integrin αvβ6
# T1 construct: purchased R&D systems (Minneapolis, Minn.)
# T1 sequence (P06756 31-889 limits assumed): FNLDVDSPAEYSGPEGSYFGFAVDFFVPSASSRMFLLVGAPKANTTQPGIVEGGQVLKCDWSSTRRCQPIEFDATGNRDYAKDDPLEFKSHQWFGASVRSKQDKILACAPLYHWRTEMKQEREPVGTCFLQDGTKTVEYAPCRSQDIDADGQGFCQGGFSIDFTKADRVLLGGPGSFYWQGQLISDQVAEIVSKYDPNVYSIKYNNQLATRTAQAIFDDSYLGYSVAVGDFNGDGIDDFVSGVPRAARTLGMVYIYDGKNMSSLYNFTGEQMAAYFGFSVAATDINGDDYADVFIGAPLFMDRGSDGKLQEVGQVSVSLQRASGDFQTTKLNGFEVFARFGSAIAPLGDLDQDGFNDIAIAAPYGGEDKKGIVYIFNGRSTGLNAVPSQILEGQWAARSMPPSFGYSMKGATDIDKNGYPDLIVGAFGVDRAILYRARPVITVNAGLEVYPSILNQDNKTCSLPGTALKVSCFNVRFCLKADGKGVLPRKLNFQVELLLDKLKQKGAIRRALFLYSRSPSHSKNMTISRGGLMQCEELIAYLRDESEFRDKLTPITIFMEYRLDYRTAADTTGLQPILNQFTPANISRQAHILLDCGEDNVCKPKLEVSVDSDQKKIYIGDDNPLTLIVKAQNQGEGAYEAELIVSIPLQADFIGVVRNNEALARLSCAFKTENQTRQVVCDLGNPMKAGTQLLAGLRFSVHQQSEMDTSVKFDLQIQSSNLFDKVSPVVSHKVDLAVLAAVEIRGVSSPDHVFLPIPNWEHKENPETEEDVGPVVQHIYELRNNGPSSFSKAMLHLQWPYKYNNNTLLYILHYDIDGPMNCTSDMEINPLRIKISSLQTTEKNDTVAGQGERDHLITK
# T1 sequence (P06756 891-992 limits assumed): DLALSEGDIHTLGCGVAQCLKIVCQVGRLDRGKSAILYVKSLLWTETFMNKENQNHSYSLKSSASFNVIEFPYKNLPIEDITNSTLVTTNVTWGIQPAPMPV
# T1 sequence (P18564 22-707 limits assumed): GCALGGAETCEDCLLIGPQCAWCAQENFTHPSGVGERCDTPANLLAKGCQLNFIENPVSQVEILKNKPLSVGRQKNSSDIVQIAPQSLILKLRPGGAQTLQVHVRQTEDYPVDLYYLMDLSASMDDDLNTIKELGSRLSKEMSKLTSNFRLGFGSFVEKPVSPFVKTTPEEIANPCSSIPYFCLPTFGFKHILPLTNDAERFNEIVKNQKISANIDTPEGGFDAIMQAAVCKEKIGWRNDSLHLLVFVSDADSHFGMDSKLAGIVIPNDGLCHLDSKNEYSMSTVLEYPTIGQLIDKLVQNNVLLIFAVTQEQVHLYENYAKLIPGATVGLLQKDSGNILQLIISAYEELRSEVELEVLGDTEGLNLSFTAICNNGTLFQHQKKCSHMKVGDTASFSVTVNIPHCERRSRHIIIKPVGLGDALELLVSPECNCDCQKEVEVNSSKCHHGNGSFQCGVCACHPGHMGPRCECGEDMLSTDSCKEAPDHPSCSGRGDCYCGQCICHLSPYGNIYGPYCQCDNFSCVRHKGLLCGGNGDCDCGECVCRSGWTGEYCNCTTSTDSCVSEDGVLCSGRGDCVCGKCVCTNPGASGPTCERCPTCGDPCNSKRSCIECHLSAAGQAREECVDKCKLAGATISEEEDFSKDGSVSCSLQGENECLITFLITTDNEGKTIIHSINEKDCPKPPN
# Procedure: Affinity of each peptide was assessed ELISA on Nunc Maxisorp Flat-bottom 96 well plates (affymetrix ebioscience, San Diego, Calif.). Integrin alpha V antibody P2W7 was purchased from Novus Biologicals (Littleton, Colo.). Bovine serum albumin (BSA) was purchased from VWR (Randor, Pa.) and TMB one solution was purchased from Promega (Madison, Wis.). αvβ6 integrin was purchased from R&D systems (Minneapolis, Minn.). Protein biotinylation kit was purchased from Amersham plc (Amersham, UK) while competing natural ligand fibronectin was purchased from Invitrogen (Carlsbad, Calif.). Affinity was measured in absorbance units by the Thermo Multiscan Plate reader with associated Ascent Software (Thermofisher, Waltham, Mass.).
# The peptides were allowed to compete for 1 h with biotinylated fibronectin, a natural ligand for αvβ6; or biotinylated vitronectin, when competing against αvβ3. Briefly, a 96-well plate was coated with 50 μL/well of 5 μg/mL P2W7 in phosphate buffered saline (PBS) at 37° C. for 1 h. The plate was washed three times with PBS followed by treatment with PBS containing 5% bovine serum albumin (BSA; fraction V; w/v) and 1% Tween 20 (v/v) at 4° C. for 16 h to block nonspecific binding. The plate was washed with PBS and coated with 50 μL/well integrin in wash buffer (WaB) for 1 h and then washed three times with WaB. WaB consisted of a solution of 2 mmol/L Tris buffer (pH 7.6), 150 mmol/L sodium chloride, 1 mmol/L manganese chloride, and 0.1% Tween 20 (v/v) in deionized water. Triplicate wells were coated with 50 μL/well of a mixture of equal volumes of biotinylated fibronectin (BtFn) for αvβ6, or biotinylated vitronectin (BtVn) for αvβ3, in conjugate buffer, consisting of 1% BSA (fraction V; w/v) in WaB, and a serial dilution of peptide stock (2 mmol/L; 10% DMSO (v/v) in water) from 1 μM to 1 pM. Wells containing no peptide, no peptide and no antibody, or no peptide and no ligand served as controls. The plate was incubated for 1 h at room temperature and washed three times with WaB before ExtrAvidin-horseradish peroxidase conjugate was added (50 μL/well, 1:1,000 dilution in conjugate buffer) at room temperature for 1 h. After washing with WaB, bound BtFn or BtVn was detected by addition of TMB (50 μL/well) and incubation for 10 to 15 min. The reaction was terminated by adding 50 μL/well […] sulfuric acid and absorbance was measured at 450 nm (yellow color of acidified oxidized TMB, indicating fibronectin binding). Calculations of IC50 values are based on data analysis with Prism software (GraphPad Software).
# [2] = tested on: αvβ6-negative DX3puro control cell line; assay: Cell binding and internalization of radiotracers, DX3puro control cells; type: cell-based, human
# [3] = tested on: BxPC-3 cells (endogenous αvβ6(+)-expression); conditions: 60 min incubation
# [4] = tested on: BxPC-3 tumors (endogenous αvβ6-expression); conditions: 1 h; blocking with 30 mg/kg FBA-PEG28-A20FMDV2 at T=−10 min
# Procedure: (PBS) or 37° C. (serum), followed by analysis on radio HPLC. Data are expressed as % probe remaining intact in sample. […] Tumor models—DX3puroβ6/DX3puro: Human melanoma cell line. DX3puroβ6 has been stably transfected to express integrin αvβ6. DX3puro is negative control cell line. […] BxPC-3: Pancreatic cell line with endogenous αvβ6-expression. MIA PaCa-2: Pancreatic cell line, no αvβ6-expression.
compound,measurement,setting,value
PEG28-A20FMDV2-GG-D(KLAKLAK)2-K,"Affinity and selectivity for the αvβ6(+)-expressing cell line DX3puroβ6, in words",[1],"does not affect its affinity, specificity, and internalization-potential"
CC(C)C[C@H](NC(=O)[C@H](CC(=O)O)NC(=O)[C@H](CO)NC(=O)[C@H](CCCNC(=N)N)NC(=O)c1ccc(F)cc1)C(=O)N[C@H](C(=O)N1CCC[C@H]1C(=O)N[C@@H](CC(C)C)C(=O)N[C@@H](Cc1ccccc1)C(N)=O)[C@@H](C)O ({Benzoyl(4-F)}-RSDLTPLF-NH2),IC50,αvβ6 integrin,7 nM
"c(RSDLTPLFE)K([^19F]FBA)-NH2 (RSDLTPLFEK((19F)FBA)-NH2; bridge (positions not given here); also: residues 1-9 cyclized, mode not given here)",IC50,"αvβ6 integrin; ELISA, calculated by PRISM, read-out: IC50 against αvβ6",> 300 nM
CC(C)C[C@H](NC(=O)[C@H](CC(=O)O)NC(=O)[C@H](CO)NC(=O)[C@@H](N)CCCNC(=N)N)C(=O)N[C@H](C(=O)N1CCC[C@H]1C(=O)N[C@@H](CC(C)C)C(=O)N[C@@H](Cc1ccccc1)C(N)=O)[C@@H](C)O (H-RSDLTPLF-NH2),IC50,αvβ6 integrin,7 nM
same,Selectivity for αvβ6 over αvβ3,αvβ6 integrin,100 times
CC(C)C[C@H](NC(=O)[C@H](CC(=O)O)NC(=O)CNC(=O)[C@H](CCCNC(=N)N)NC(=O)[C@H](CC(C)C)NC(=O)[C@H](CC(N)=O)NC(=O)[C@@H]1CCCN1C(=O)[C@@H](NC(=O)[C@H](C)NC(=O)[C@H](CC(N)=O)NC(=O)CCOCCOCCOCCOCCOCCOCCOCCOCCOCCOCCOCCOCCOCCOCCOCCOCCOCCOCCOCCOCCOCCOCCOCCOCCOCCOCCOCCOCCNC(=O)c1ccc(F)cc1)C(C)C)C(=O)N[C@@H](CCC(N)=O)C(=O)N[C@H](C(=O)N[C@@H](CC(C)C)C(=O)N[C@@H](C)C(=O)N[C@@H](CCC(N)=O)C(=O)N[C@@H](CCCCN)C(=O)N[C@H](C(=O)N[C@@H](C)C(=O)N[C@@H](CCCNC(=N)N)C(=O)N[C@H](C(=O)NCCOCCOCCOCCOCCOCCOCCOCCOCCOCCOCCOCCOCCOCCOCCOCCOCCOCCOCCOCCOCCOCCOCCOCCOCCOCCOCCOCCOCCC(N)=O)[C@@H](C)O)C(C)C)C(C)C [PEGylated A20FMDV2 not bearing K(IPA)E],"Binding and internalization in DX3puro control, in words",[2],low
same,Binding to DX3puroβ6 cells (fraction of total radioactivity),[1]; 60 min incubation,52%
same,"Internalized share of bound radioactivity, DX3puroβ6 cells",[1]; of bound radioactivity,44%
D(KLAKLAK)2-GG-PEG28-A20FMDV2-K,"Affinity and selectivity for the αvβ6(+)-expressing cell line DX3puroβ6, in words",[1],"does not affect its affinity, specificity, and internalization-potential"
18F-FBA-PEG28-A20FMDV2-PEG28 [compound 5],Binding to BxPC-3 cells (fraction of total radioactivity),[3],37.2±1.9%
same,Internalization into BxPC-3 cells (of total radioactivity),[3],28.4±0.9%
same,Binding to DX3puro control cells,[2]; 60 min incubation,3.5±0.2%
same,Internalization into DX3puro control cells,[2]; 60 min incubation,0.9±0.1%
same,Binding to DX3puroβ6 cells (fraction of total radioactivity),[1]; 60 min incubation,51.0±0.9%
same,Internalization into DX3puroβ6 cells (of total radioactivity),[1]; 60 min incubation,33.5±1.8%
same,Reduction of BxPC-3 tumor uptake vs unblocked,[4],92%
PEG28-A20FMDV2(K16R)-PEG28,Internalization in αvβ6 cells,"[1]; 1 h, basis not given",> 50%
same,Binding to DX3puroβ6 cells (fraction of total radioactivity),[1]; 60 min incubation,> 70%
